A short description of data set [1]: Cleavage of reductive-labile protecting group by a reducing agent (TLC analysis). The format is physicochemical. Particulars: 1 mM reducing agent (dithiothreitol or tris(2-carboxyethyl)phosphine), 30 minutes, room temperature, water (pH 7), analyzed by TLC. The protocol: Compound 1 was treated with 1 mM of a reducing agent, i.e., dithiothreitol or tris(2-carboxyethyl)phosphine, for 30 minutes at room temperature in water (pH 7). The solution was analyzed by TLC. A control experiment was conducted by analyzing an aqueous solution containing Compound 1 without being treated with a reducing agent by using TLC.

With `Cc1ccc(C(OS(=O)(=O)CCCN2CCCc3cc4c(cc32)Oc2cc3c(cc2=N4)CCC[N+]=3CCCS(=O)(=O)OC(c2ccc(C)cc2)C(F)(F)F)C(F)(F)F)cc1` (stereo not drawn), the melting point (in general, the temperature of the solid-liquid transition) is 220 to 222 °C (dec.).

`Cc1ccc(C(OS(=O)(=O)CCCCl)C(F)(F)F)cc1` (stereo not drawn) [Compound 22, 2,2,2-trifluoro-1-(p-tolyl)ethyl 3-chloropropane-1-sulfonate]: the melting point lay within 61 to 63 °C.

`CSSc1ccc(C(OS(=O)(=O)c2cccc3c(N(C)C)cccc23)C(F)(F)F)cc1` (stereo not drawn) [Compound 1, 2,2,2-trifluoro-1-(4-(methyldisulfanyl)phenyl)-ethyl 5-(dimethylamino)naphthalene-1-sulfonate]: the “cleavage of the protecting group to form a deprotected sulfonate dye” value in data set [1] is on record as “rapidly cleaved”.

For the origin of these results see patent publication US9329185B2, “Sulfonate compounds” (University of Massachusetts, priority 2013, dated 2016).
